Test results taken from paper PMC12920294, “Optimizing uPAR-targeting radiopeptides for improved tissue distribution: progress towards radionuclide therapy” (European Journal of Nuclear Medicine and Molecular Imaging, 2025).
Where two headings read alike, the source gives them in different places.

What was measured:
[1] = type: in vitro ADME; conditions: 1 µM
Protocol: The ^177Lu-labeled peptides (50 MBq/nmol) were incubated in mouse or human blood plasma (10 MBq/200 µL) over an incubation period of 24 h at 37 °C. Aliquots and control samples of the radiopeptides diluted in saline were analyzed after 1 h, 4 h and 24 h using thin layer chromatography (TLC) as previously reported (Supplementary Material). The distribution coefficients (logD values) of the ^177Lu-labeled peptides (50 MBq/nmol) were determined using a shake-flask method according to a previously published procedure (Supplementary Material).
Methods: A sample of each radiopeptide (50 MBq/nmol) was added to mouse blood plasma (Lot: 32321, Rockland Immunochemicals Inc., USA) or to human blood plasma (Stiftung Blutspende SRK Aargau-Solothurn, Switzerland) to obtain an activity concentration of 10 MBq/200 µL. The test samples were incubated at 37 °C for up to 24 h. Control samples referred to the radiopeptides which were instead diluted in saline at an activity concentration of 10 MBq/200 µL. Aliquots of each sample (2 µL, ~100 kBq) were taken after 1 h, 4 h and 24 h and investigated by means of thin layer chromatography (TLC). The employed method involved reversed-phase TLC plates (MERCK Analytical Chromatography, TLC Silica gel 60 RP-18 F254s) as stationary phase and ACN/citrate buffer (3:7; v/v; pH 5.5) as mobile phase. After the eluent reached the front line, the TLC plates were dried and exposed to a phosphor screen (Super resolution screen PSR10450013, PerkinElmer) for 1 min. The respective screen was developed using a storage phosphor system (Cyclone Plus, PerkinElmer) and analyzed using the OptiQuant Software (version 5.0, Bright Instrument Co Ltd., PerkinElmer).

mouse serum albumin = molecular target: T1, mouse serum albumin (Mus musculus, UniProt P07724); type: in vitro ADME
T1 construct: tissue Rockland Immunochemicals Inc., USA Lot: 32321; host or cells: mouse blood plasma
T1 sequence (P07724 25-608): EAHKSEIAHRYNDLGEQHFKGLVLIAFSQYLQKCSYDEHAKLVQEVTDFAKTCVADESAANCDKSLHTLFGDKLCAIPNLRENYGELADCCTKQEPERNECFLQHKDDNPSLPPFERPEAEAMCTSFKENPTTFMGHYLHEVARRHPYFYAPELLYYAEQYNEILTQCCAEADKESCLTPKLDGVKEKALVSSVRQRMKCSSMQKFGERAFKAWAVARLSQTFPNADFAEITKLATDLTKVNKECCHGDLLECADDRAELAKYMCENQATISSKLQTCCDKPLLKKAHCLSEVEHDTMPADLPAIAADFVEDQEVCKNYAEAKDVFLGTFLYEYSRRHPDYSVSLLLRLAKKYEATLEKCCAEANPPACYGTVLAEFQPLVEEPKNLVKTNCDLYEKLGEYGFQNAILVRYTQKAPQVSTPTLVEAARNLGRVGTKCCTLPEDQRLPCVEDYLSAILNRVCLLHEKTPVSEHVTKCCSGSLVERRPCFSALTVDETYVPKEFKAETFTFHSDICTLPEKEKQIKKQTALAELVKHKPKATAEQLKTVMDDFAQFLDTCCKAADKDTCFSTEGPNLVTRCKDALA
Protocol: (§1) The albumin-binding properties of the radiopeptides in mouse and human blood plasma were determined using an ultrafiltration assay with Amicon centrifugal filters (cut-off of 10 kDa; Merck Millipore) as previously reported (Supplementary Material). A fixed amount of the respective radiopeptide (~ 300 kBq, 15 µL, 6 pmol) was added to a defined volume (150 µL) of mouse and human blood plasma dilutions to obtain [mouse serum albumin]-to-[radiopeptide] molar concentration ratios of 0.01‒12,500 and [human serum albumin]-to-[radiopeptide] molar concentration ratios of 0.01‒20,000. The data were analyzed using a semi-logarithmic Hill plot with the maximum binding set as 100% using GraphPad Prism software (version 10.1.1). The half-maximum binding (B50 values) of each radiopeptide was expressed as relative values using the inverse ratios with the value of [^177Lu]Lu-uPAR-11 set as 1.0. […] The samples were incubated at 37 °C for 30 min. Ice-cold PBS (150 µL, pH 7.4) was added before loading the blood plasma samples on Amicon centrifugal filters (cut-off of 10 kDa; Merck Millipore) followed by centrifugation (14000 rcf, 4 °C, 30 min) to allow the separation of the plasma protein-bound from the unbound (free) fractions of each sample. The inserts of the filter devices were inverted and centrifuged at 200 rcf for 3 min to recover the protein-bound radiopeptide. The activity of the protein-bound fraction was measured using a γ-counter (Wallac Wizard 1480, PerkinElmer). The activity in the filtrate and filter unit was counted in the γ-counter and the counts were combined, assuming that the fraction retained in the filter membrane was not bound to proteins. The protein-bound fraction was expressed as percentage of the whole activity (i.e. plasma protein-bound activity, activity measured in the filtrate and activity measured in the filter (set as 100%)). The data were analyzed using a semi-logarithmic plot assuming a maximum binding of 100%. The Hill equation was fitted to the data points, and the half-maximum binding (B50) was determined based on the obtained binding curves using GraphPad Prism software (version 10.1.1). To quantitatively express and compare the albumin-binding properties of the radiopeptides, the relative albumin-binding affinity was expressed as the inverse half-maximal-binding (B50) of the respective radioligand to that of [^177Lu]Lu-uPAR-11, which was set as 1.0. The results were presented as the value obtained from the average curve from 3 independent experiments.

[2] = system: HEK-uPAR xenograft-bearing mice; conditions: mouse, in vivo
Protocol: (§2) HEK-uPAR xenografted mice were injected with the respective radiopeptide (5 MBq, 0.5 nmol/mouse, 100 µL 0.9% NaCl containing 0.05% BSA) and sacrificed at 4 h and 24 h after injection. […] The tissues and organs of interest were collected, weighed and counted for activity using a γ-counter (Wallac Wizard 1480, PerkinElmer). […] The results were presented as the average ± SD of n = 3 mice. The time-activity curves were determined for the uptake of [^177Lu]Lu-DOTA-AE105 and [^177Lu]Lu-uPAR-11 in the blood, HEK-uPAR xenografts, kidneys and liver based on non-decay corrected biodistribution data. For the blood, the initial uptake (t = 0) was set as 50% IA/g assuming a blood volume of 2 mL for CD1 nude mice. The initial uptake value (t = 0) for all other organs and tissues was set as 0% IA/g. […] The area under the curves over 48 h after injection (AUC0h→48 h) was calculated using GraphPad Prism software (version 10.1.1). Statistical analyses were performed by applying a one-way ANOVA test with a Dunnet’s multiple comparison post‐test to compare the data of the new radiopeptides with those of [^177Lu]Lu-DOTA-AE105 and a Tukey’s multiple comparisons post‐test to compare the novel radiopeptides among them. A p-value of < 0.05 was considered a statistically significant difference using GraphPad Prism software (version 10.1.1).

in vivo = conditions: CD1 nude, mouse, 0.5 nmol/mouse, total radioactivity
Protocol: as §2

human serum albumin = human serum albumin (Homo sapiens, UniProt P02768); type: in vitro ADME; set-up: tissue Stiftung Blutspende SRK Aargau-Solothurn, Switzerland; host or cells: human blood plasma
human serum albumin, sequence (P02768 25-609): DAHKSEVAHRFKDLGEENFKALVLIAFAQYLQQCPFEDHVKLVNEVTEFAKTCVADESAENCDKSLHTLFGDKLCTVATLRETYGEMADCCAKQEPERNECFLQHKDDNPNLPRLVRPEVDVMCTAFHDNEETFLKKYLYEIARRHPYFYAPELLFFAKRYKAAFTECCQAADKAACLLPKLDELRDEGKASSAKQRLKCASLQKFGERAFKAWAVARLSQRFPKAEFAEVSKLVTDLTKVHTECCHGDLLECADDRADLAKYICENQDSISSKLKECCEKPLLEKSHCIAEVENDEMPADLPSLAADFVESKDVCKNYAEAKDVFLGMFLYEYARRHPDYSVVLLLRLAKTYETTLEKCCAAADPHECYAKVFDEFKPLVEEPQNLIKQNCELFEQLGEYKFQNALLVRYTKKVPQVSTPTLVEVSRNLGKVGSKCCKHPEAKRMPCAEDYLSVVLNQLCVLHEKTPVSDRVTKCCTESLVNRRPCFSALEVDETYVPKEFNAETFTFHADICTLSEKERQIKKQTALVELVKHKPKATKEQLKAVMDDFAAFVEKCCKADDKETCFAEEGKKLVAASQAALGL
Protocol: as §1

In the case of `Cc1ccc(CCCC(=O)NCCOCCOCCOCCOCCOCCC(=O)NCCCC[C@H](NC(=O)CN2CCN(CC(=O)O)CCN(CC(=O)O)CCN(CC(=O)O)CC2)C(=O)N[C@@H](CC(=O)O)C(=O)N[C@@H](CC2CCCCC2)C(=O)N[C@@H](Cc2ccccc2)C(=O)N[C@H](CO)C(=O)N[C@H](CCCNC(=N)N)C(=O)N[C@@H](Cc2ccc(O)cc2)C(=O)N[C@@H](CC(C)C)C(=O)N[C@@H](Cc2c[nH]c3ccccc23)C(=O)N[C@@H](CO)C(N)=O)cc1` [[^177Lu]Lu-uPAR-18, metal not drawn], the “Human blood plasma stability, intact radiopeptide” value (“Human blood plasma stability” for short) ([1]; 1 h) is reported as 100 ± 1%, the “Mouse blood plasma stability, intact radiopeptide” value (“Mouse blood plasma stability” for short) ([1]; 1 h) is reported as 100 ± 1% and the “Human blood plasma stability” value ([1]; 4 h) is reported as 99 ± 1%. For the same compound, the “Mouse blood plasma stability” value ([1]; 4 h) was 99 ± 2%, the “Human blood plasma stability” value ([1]; 24 h) was 95 ± 2% and the “Mouse blood plasma stability” value ([1]; 24 h) was 89 ± 3%. For the same compound, the “Albumin-binding properties, relative values (inverse B50 ratio)” value (mouse serum albumin) was 0.66, the Xgrft-to-liver ratio [2] was 20 ± 3 and the tissue uptake at 4 h (in vivo; Blood uptake) was 3.4 ± 0.7 %ID/g. The tissue uptake at 24 h (in vivo; Blood uptake) was 0.05 %ID/g, the tissue uptake at 4 h (in vivo; Bone uptake) was 0.5 ± 0.04 %ID/g and the tissue uptake at 24 h (in vivo; Bone uptake) was 0.19 ± 0.01 %ID/g. The tissue uptake at 4 h (in vivo; Brain uptake) was 0.08 ± 0.01 %ID/g, the tissue uptake at 24 h (in vivo; Brain uptake) was < 0.03 %ID/g and the tissue uptake at 4 h (in vivo; HEK-uPAR xenograft uptake) was 14 ± 1 %ID/g. For the same compound, the tissue uptake at 24 h (in vivo; HEK-uPAR xenograft uptake) was 7.3 ± 0.4 %ID/g, the tissue uptake at 4 h (in vivo; Heart uptake) was 1.3 ± 0.2 %ID/g and the tissue uptake at 24 h (in vivo; Heart uptake) was 0.12 ± 0.01 %ID/g. For the same compound, the tissue uptake at 4 h (in vivo; Intestines uptake) was 0.58 ± 0.14 %ID/g, the tissue uptake at 24 h (in vivo; Intestines uptake) was 0.17 ± 0.02 %ID/g and the tissue uptake at 4 h (in vivo; Kidneys uptake) was 3.7 ± 0.4 %ID/g. The tissue uptake at 24 h (in vivo; Kidneys uptake) was 2.1 ± 0.2 %ID/g, the tissue uptake at 4 h (in vivo; Liver uptake) was 1.2 ± 0.1 %ID/g and the tissue uptake at 24 h (in vivo; Liver uptake) was 0.38 ± 0.06 %ID/g. The tissue uptake at 4 h (in vivo; Lung uptake) was 2.1 ± 0.4 %ID/g, the tissue uptake at 24 h (in vivo; Lung uptake) was 0.29 ± 0.02 %ID/g and the tissue uptake at 4 h (in vivo; Muscle uptake) was 0.37 ± 0.03 %ID/g. It also gave a tissue uptake at 24 h (in vivo; Muscle uptake) of 0.06 ± 0.01 %ID/g, a tissue uptake at 4 h (in vivo; Pancreas uptake) of 0.63 ± 0.27 %ID/g and a tissue uptake at 24 h (in vivo; Pancreas uptake) of 0.09 ± 0.01 %ID/g. For the same compound, the tissue uptake at 4 h (in vivo; Salivary glands uptake) was 0.87 ± 0.2 %ID/g, the tissue uptake at 24 h (in vivo; Salivary glands uptake) was 0.23 ± 0.03 %ID/g and the tissue uptake at 4 h (in vivo; Spleen uptake) was 0.77 ± 0.01 %ID/g. For the same compound, the tissue uptake at 24 h (in vivo; Spleen uptake) was 0.42 ± 0.04 %ID/g, the tissue uptake at 4 h (in vivo; Stomach uptake) was 0.54 ± 0.12 %ID/g and the tissue uptake at 24 h (in vivo; Stomach uptake) was 0.11 ± 0.02 %ID/g. The “Inverse relative albumin-binding affinity” value (human serum albumin) was 1.05.

In the case of `Cc1ccc(CCCC(=O)NCCCCCCCC(=O)NCCCC[C@H](NC(=O)CN2CCN(CC(=O)O)CCN(CC(=O)O)CCN(CC(=O)O)CC2)C(=O)N[C@@H](CC(=O)O)C(=O)N[C@@H](CC2CCCCC2)C(=O)N[C@@H](Cc2ccccc2)C(=O)N[C@H](CO)C(=O)N[C@H](CCCNC(=N)N)C(=O)N[C@@H](Cc2ccc(O)cc2)C(=O)N[C@@H](CC(C)C)C(=O)N[C@@H](Cc2c[nH]c3ccccc23)C(=O)N[C@@H](CO)C(N)=O)cc1` [[^177Lu]Lu-uPAR-12, metal not drawn], the “Human blood plasma stability” value ([1]; 1 h) is reported as 100 ± 1%, the “Mouse blood plasma stability” value ([1]; 1 h) is reported as 100 ± 1% and the “Human blood plasma stability” value ([1]; 4 h) is reported as 99 ± 1%. For the same compound, the “Mouse blood plasma stability” value ([1]; 4 h) was 99 ± 1%, the “Human blood plasma stability” value ([1]; 24 h) was 98 ± 1% and the “Mouse blood plasma stability” value ([1]; 24 h) was 99 ± 1%. For the same compound, the Xgrft-to-liver ratio [2] was 1.3 ± 0.1, the tissue uptake at 4 h (in vivo; Blood uptake) was 12 ± 1 %ID/g and the tissue uptake at 24 h (in vivo; Blood uptake) was 3.4 ± 1 %ID/g. The tissue uptake at 4 h (in vivo; Bone uptake) was 1.4 ± 0.1 %ID/g, the tissue uptake at 24 h (in vivo; Bone uptake) was 0.78 ± 0.15 %ID/g and the tissue uptake at 4 h (in vivo; Brain uptake) was 0.24 ± 0.01 %ID/g. The tissue uptake at 24 h (in vivo; Brain uptake) was 0.1 ± 0.03 %ID/g, the tissue uptake at 4 h (in vivo; HEK-uPAR xenograft uptake) was 6 ± 0.2 %ID/g and the tissue uptake at 24 h (in vivo; HEK-uPAR xenograft uptake) was 5.7 ± 0.7 %ID/g. It also gave a tissue uptake at 4 h (in vivo; Heart uptake) of 4 ± 0.3 %ID/g, a tissue uptake at 24 h (in vivo; Heart uptake) of 1.6 ± 0.2 %ID/g and a tissue uptake at 4 h (in vivo; Intestines uptake) of 1.5 ± 0.1 %ID/g. The tissue uptake at 24 h (in vivo; Intestines uptake) was 0.76 ± 0.12 %ID/g, the tissue uptake at 4 h (in vivo; Kidneys uptake) was 3.9 ± 0.1 %ID/g and the tissue uptake at 24 h (in vivo; Kidneys uptake) was 4.3 ± 0.3 %ID/g. It also gave a tissue uptake at 4 h (in vivo; Liver uptake) of 5.3 ± 0.3 %ID/g, a tissue uptake at 24 h (in vivo; Liver uptake) of 4.2 ± 0.3 %ID/g and a tissue uptake at 4 h (in vivo; Lung uptake) of 7.2 ± 1.3 %ID/g. The tissue uptake at 24 h (in vivo; Lung uptake) was 2.6 ± 0.6 %ID/g, the tissue uptake at 4 h (in vivo; Muscle uptake) was 1.2 ± 0.1 %ID/g and the tissue uptake at 24 h (in vivo; Muscle uptake) was 0.6 ± 0.22 %ID/g. The tissue uptake at 4 h (in vivo; Pancreas uptake) was 1.4 ± 0.2 %ID/g, the tissue uptake at 24 h (in vivo; Pancreas uptake) was 0.79 ± 0.24 %ID/g and the tissue uptake at 4 h (in vivo; Salivary glands uptake) was 2.7 ± 0.2 %ID/g. The tissue uptake at 24 h (in vivo; Salivary glands uptake) was 1.4 ± 0.2 %ID/g, the tissue uptake at 4 h (in vivo; Spleen uptake) was 1.9 ± 0.1 %ID/g and the tissue uptake at 24 h (in vivo; Spleen uptake) was 2 ± 0.6 %ID/g. It also gave a tissue uptake at 4 h (in vivo; Stomach uptake) of 1.4 ± 0.1 %ID/g and a tissue uptake at 24 h (in vivo; Stomach uptake) of 0.52 ± 0.16 %ID/g.
